Measurements published in patent US20240358693A1, “METHODS OF TREATING PAIN” (Aisa Pharma, Inc., priority 2023, published 2024).

Test system: participants with SSc-RP
Assay: Scleroderma Health Assessment Questionnaire (SHAQ): disability indices and visual analog scales
Format: in vivo, human
Settings: Day 12 vs baseline; PP Population, Part A; SSc patients; sensitivity analysis
Description: The standard, validated, patient reported outcome measures tool for SSc patients, the Scleroderma Health Assessment Questionnaire (SHAQ), will be used to assess the participant qualify of life. Details are attached in the Appendix. The participant quality of life will be scored, and a disability index calculated for each questionnaire completed by the patient at Screening and each in-clinic visit. The absolute change in participant quality of life from baseline to the end of each dosing period will be calculated similar to frequency data as before.
The SHAQ includes a Raynaud's VAS, which will be reported at screening and each in-clinic visit. The absolute change in Raynaud-VAS, assessed by the participants response to the SHAQ question ‘In the past 7 days, how much have your Raynaud's interfered with your daily activities?’ at baseline and the end of each dosing period will be calculated similar to frequency data as before.
The SHAQ is used to calculate a Disability Index to assess the participant qualify of life. The eight categories assessed by the Disability Index are 1) dressing and grooming, 2) arising, 3) eating, 4) walking, 5) hygiene, 6) reach, 7) grip, and 8) common daily activities. For each of these categories, patients report the amount of difficulty they have in performing two or three specific activities.
There are four possible responses for the Disability Index questions: • Without any difficulty=0 • With some difficulty=1 • With much difficulty=2 • Unable to do=3. • The highest score reported by the patient for any component question of the eight categories determines the score for that category. • If a component question is left blank or the response is too ambiguous to assign a score, then the score for that category is determined by the remaining completed question(s). • If all component questions are blank or if more than one answer is given, then follow up with the respondent is required. • If the respondent's mark is between the response columns, then move it to the closest one. If it's directly between the two, move it to the higher one.
Each of the disability items on the SHAQ has a companion aids/devices variable that is used to record what type(s) of assistance, if any, the participant uses for his/her usual activities. These variables (see below) are coded as follows: • 0=No assistance is needed. • 1=A special device is used by the patient in his/her usual activities. • 2=The patient usually needs help from another person. • 3=The patient usually needs BOTH a special device AND help from another person.
The scoring variables and scoring rules permit the computation of two disability indices, the Standard Disability Index and the Alternative Disability Index.
This question results in a new set of category scores that are computed by adjusting the score for each category, if necessary, based on the patient's use of an aid or device or assistance for that category. If either devices and/or help from another person are checked for a category, the score is set to “2”, unless the score is already “3” (i.e., scores of “0” or “1” are increased to “2”). For example, if the highest score for the dressing category is “1”, and the patient says they use a device for dressing, the computed category score would be “2”. The sum of the computed categories scores is then calculated and divided by the number of categories answered. This gives a score in the 0 to 3 range.
The aid and device variables are not used to calculate the alternative disability index; it is calculated by adding the scores for each of the categories and dividing by the number of categories answered. This gives a score in the 0 to 3 range.
The standard, validated, patient reported outcome measures tool for SSc patients, the SHAQ, was collected at the time points specified in the study schedules (FIG. 2 and FIGS. 4A and 4B) to assess the participant's quality of life. The SHAQ included a Raynaud's VAS that will also be reported separately.

COCCOC(=O)C1=C(C)NC(C)=C(C(=O)OC/C=C/c2ccccc2)C1c1cccc([N+](=O)[O-])c1 (stereo not drawn) [Any Cilnidipine]
SHAQ Alternative Disability Index, Change from Baseline, Max: 0.38 | SHAQ Alternative Disability Index, Change from Baseline, Mean: −0.006 | SHAQ Alternative Disability Index, Change from Baseline, Median: 0.000 | SHAQ Alternative Disability Index, Change from Baseline, Min: −0.29 | SHAQ Alternative Disability Index, Change from Baseline, Q1: −0.125 | SHAQ Alternative Disability Index, Change from Baseline, Q3: 0.000 | SHAQ Alternative Disability Index, Percent Change from Baseline, Max: 300.0% | SHAQ Alternative Disability Index, Percent Change from Baseline, Mean: 21.32% | SHAQ Alternative Disability Index, Percent Change from Baseline, Median: −10.00% | SHAQ Alternative Disability Index, Percent Change from Baseline, Min: −100.0% | SHAQ Alternative Disability Index, Percent Change from Baseline, Q1: −28.57% | SHAQ Alternative Disability Index, Percent Change from Baseline, Q3: 42.86% | SHAQ Visual Analogue Scale - Finger Ulcers, Change from Baseline, Max: 0.40 | SHAQ Visual Analogue Scale - Finger Ulcers, Change from Baseline, Mean: −0.540 | SHAQ Visual Analogue Scale - Finger Ulcers, Change from Baseline, Median: −0.100 | SHAQ Visual Analogue Scale - Finger Ulcers, Change from Baseline, Min: −3.20 | SHAQ Visual Analogue Scale - Finger Ulcers, Change from Baseline, Q1: −0.700 | SHAQ Visual Analogue Scale - Finger Ulcers, Change from Baseline, Q3: 0.000 | SHAQ Visual Analogue Scale - Finger Ulcers, Percent Change from Baseline, Max: 133.3% | SHAQ Visual Analogue Scale - Finger Ulcers, Percent Change from Baseline, Mean: −33.91% | SHAQ Visual Analogue Scale - Finger Ulcers, Percent Change from Baseline, Median: −36.11% | SHAQ Visual Analogue Scale - Finger Ulcers, Percent Change from Baseline, Min: −100.0% | SHAQ Visual Analogue Scale - Finger Ulcers, Percent Change from Baseline, Q1: −100.00% | SHAQ Visual Analogue Scale - Finger Ulcers, Percent Change from Baseline, Q3: −12.50% | SHAQ Visual Analogue Scale - Intestinal Problems, Change from Baseline, Max: 2.90 | SHAQ Visual Analogue Scale - Intestinal Problems, Change from Baseline, Mean: −0.556 | SHAQ Visual Analogue Scale - Intestinal Problems, Change from Baseline, Median: −0.100 | SHAQ Visual Analogue Scale - Intestinal Problems, Change from Baseline, Min: −4.40 | SHAQ Visual Analogue Scale - Intestinal Problems, Change from Baseline, Q1: −1.100 | SHAQ Visual Analogue Scale - Intestinal Problems, Change from Baseline, Q3: 0.200 | SHAQ Visual Analogue Scale - Intestinal Problems, Percent Change from Baseline, Max: 181.3% | SHAQ Visual Analogue Scale - Intestinal Problems, Percent Change from Baseline, Mean: −18.65% | SHAQ Visual Analogue Scale - Intestinal Problems, Percent Change from Baseline, Median: −54.13% | SHAQ Visual Analogue Scale - Intestinal Problems, Percent Change from Baseline, Min: −100.0% | SHAQ Visual Analogue Scale - Intestinal Problems, Percent Change from Baseline, Q1: −100.00% | SHAQ Visual Analogue Scale - Intestinal Problems, Percent Change from Baseline, Q3: 40.00% | SHAQ Visual Analogue Scale - Overall Disease Severity, Change from Baseline, Max: 1.90 | SHAQ Visual Analogue Scale - Overall Disease Severity, Change from Baseline, Mean: −0.991 | SHAQ Visual Analogue Scale - Overall Disease Severity, Change from Baseline, Median: −1.100 | SHAQ Visual Analogue Scale - Overall Disease Severity, Change from Baseline, Min: −3.10 | SHAQ Visual Analogue Scale - Overall Disease Severity, Change from Baseline, Q1: −1.650 | SHAQ Visual Analogue Scale - Overall Disease Severity, Change from Baseline, Q3: −0.400 | SHAQ Visual Analogue Scale - Overall Disease Severity, Percent Change from Baseline, Max: 100.0% | SHAQ Visual Analogue Scale - Overall Disease Severity, Percent Change from Baseline, Mean: −36.33% | SHAQ Visual Analogue Scale - Overall Disease Severity, Percent Change from Baseline, Median: −42.89% | SHAQ Visual Analogue Scale - Overall Disease Severity, Percent Change from Baseline, Min: −100.0% | SHAQ Visual Analogue Scale - Overall Disease Severity, Percent Change from Baseline, Q1: −58.95% | SHAQ Visual Analogue Scale - Overall Disease Severity, Percent Change from Baseline, Q3: −24.92% | SHAQ Visual Analogue Scale - Pain, Change from Baseline, Max: 0.90 | SHAQ Visual Analogue Scale - Pain, Change from Baseline, Mean: −0.575 | SHAQ Visual Analogue Scale - Pain, Change from Baseline, Median: −0.600 | SHAQ Visual Analogue Scale - Pain, Change from Baseline, Min: −2.80 | SHAQ Visual Analogue Scale - Pain, Change from Baseline, Q1: −1.200 | SHAQ Visual Analogue Scale - Pain, Change from Baseline, Q3: 0.150 | SHAQ Visual Analogue Scale - Pain, Percent Change from Baseline, Max: 20.5% | SHAQ Visual Analogue Scale - Pain, Percent Change from Baseline, Mean: −22.77% | SHAQ Visual Analogue Scale - Pain, Percent Change from Baseline, Median: −22.58% | SHAQ Visual Analogue Scale - Pain, Percent Change from Baseline, Min: −72.2% | SHAQ Visual Analogue Scale - Pain, Percent Change from Baseline, Q1: −53.33% | SHAQ Visual Analogue Scale - Pain, Percent Change from Baseline, Q3: 11.54% | SHAQ Visual Analogue Scale - Raynaud’s, Change from Baseline, Max: 1.50 | SHAQ Visual Analogue Scale - Raynaud’s, Change from Baseline, Mean: −0.696 | SHAQ Visual Analogue Scale - Raynaud’s, Change from Baseline, Median: −0.300
